Assay results from US7118895B2, “Process for producing aglycon by using diglycosidase and flavor-improved food containing the aglycon and converting agent to be used in the process” (Amano Enzyme Inc., priority 2000, dated 2006).

Tested on: Crude diglycosidase
Assay: Examination of substrate concentration in the conversion into isoflavone aglycons by diglycosidase using soybean materials;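 further: percent of the isoflavone family total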
Assay type: biochemical, Penicillium multicolor IAM7153
In short: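 Reaction at 55° C, shaken, pH 4.0 (20 mM acetate), using crude diglycosidase from a 1.88 AU/mL enzyme solution on soy flour, soymilk, defatted soybean or soy protein concentrate at 2, 5, 10, 20 or 30% (w/v). Isoflavone aglycons quantified by HPLC of ethanol extracts at 0, 1, 3, 6 h.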

COc1cc2c(=O)c(-c3ccc(O)cc3)coc2cc1O[C@@H]1O[C@H](COC(=O)CC(=O)O)[C@@H](O)[C@H](O)[C@H]1O [malonylglycitin, 6″-O-malonylglycitin]
Decomposition efficiency: ratio of each glycoside/aglycon within its isoflavone family (concentrated soybean protein, substrate concentration 2%, heat treatment of enzyme no, reaction time 0 h): 0.4%
Decomposition efficiency: ratio of each glycoside/aglycon within its isoflavone family (concentrated soybean protein, substrate concentration 2%, heat treatment of enzyme no, reaction time 1 h): 0.4%
Decomposition efficiency: ratio of each glycoside/aglycon within its isoflavone family (concentrated soybean protein, substrate concentration 2%, heat treatment of enzyme no, reaction time 3 h): 0.2%
Decomposition efficiency: ratio of each glycoside/aglycon within its isoflavone family (concentrated soybean protein, substrate concentration 2%, heat treatment of enzyme no, reaction time 6 h): not detected
Decomposition efficiency: ratio of each glycoside/aglycon within its isoflavone family (concentrated soybean protein, substrate concentration 2%, heat treatment of enzyme yes, reaction time 6 h): 0.4%
Decomposition efficiency: ratio of each glycoside/aglycon within its isoflavone family (concentrated soybean protein, substrate concentration 5%, heat treatment of enzyme no, reaction time 0 h): 0.4%
Decomposition efficiency: ratio of each glycoside/aglycon within its isoflavone family (concentrated soybean protein, substrate concentration 5%, heat treatment of enzyme no, reaction time 1 h): 0.5%
Decomposition efficiency: ratio of each glycoside/aglycon within its isoflavone family (concentrated soybean protein, substrate concentration 5%, heat treatment of enzyme no, reaction time 3 h): 0.4%
Decomposition efficiency: ratio of each glycoside/aglycon within its isoflavone family (concentrated soybean protein, substrate concentration 5%, heat treatment of enzyme no, reaction time 6 h): 0.2%
Decomposition efficiency: ratio of each glycoside/aglycon within its isoflavone family (concentrated soybean protein, substrate concentration 5%, heat treatment of enzyme yes, reaction time 6 h): 0.4%
Decomposition efficiency: ratio of each glycoside/aglycon within its isoflavone family (concentrated soybean protein, substrate concentration 10%, heat treatment of enzyme no, reaction time 0 h): 0.3%
Decomposition efficiency: ratio of each glycoside/aglycon within its isoflavone family (concentrated soybean protein, substrate concentration 10%, heat treatment of enzyme no, reaction time 1 h): 0.4%
Decomposition efficiency: ratio of each glycoside/aglycon within its isoflavone family (concentrated soybean protein, substrate concentration 10%, heat treatment of enzyme no, reaction time 3 h): 0.3%
Decomposition efficiency: ratio of each glycoside/aglycon within its isoflavone family (concentrated soybean protein, substrate concentration 10%, heat treatment of enzyme no, reaction time 6 h): 0.3%
Decomposition efficiency: ratio of each glycoside/aglycon within its isoflavone family (concentrated soybean protein, substrate concentration 10%, heat treatment of enzyme yes, reaction time 6 h): 0.3%
Decomposition efficiency: ratio of each glycoside/aglycon within its isoflavone family (concentrated soybean protein, substrate concentration 20%, heat treatment of enzyme no, reaction time 0 h): 0.2%
Decomposition efficiency: ratio of each glycoside/aglycon within its isoflavone family (concentrated soybean protein, substrate concentration 20%, heat treatment of enzyme no, reaction time 1 h): 0.3%
Decomposition efficiency: ratio of each glycoside/aglycon within its isoflavone family (concentrated soybean protein, substrate concentration 20%, heat treatment of enzyme no, reaction time 3 h): 0.2%
Decomposition efficiency: ratio of each glycoside/aglycon within its isoflavone family (concentrated soybean protein, substrate concentration 20%, heat treatment of enzyme no, reaction time 6 h): 0.3%
Decomposition efficiency: ratio of each glycoside/aglycon within its isoflavone family (concentrated soybean protein, substrate concentration 20%, heat treatment of enzyme yes, reaction time 6 h): 0.4%
Decomposition efficiency: ratio of each glycoside/aglycon within its isoflavone family (concentrated soybean protein, substrate concentration 30%, heat treatment of enzyme no, reaction time 0 h): 0.4%
Decomposition efficiency: ratio of each glycoside/aglycon within its isoflavone family (concentrated soybean protein, substrate concentration 30%, heat treatment of enzyme no, reaction time 1 h): 0.6%
Decomposition efficiency: ratio of each glycoside/aglycon within its isoflavone family (concentrated soybean protein, substrate concentration 30%, heat treatment of enzyme no, reaction time 3 h): 0.5%
Decomposition efficiency: ratio of each glycoside/aglycon within its isoflavone family (concentrated soybean protein, substrate concentration 30%, heat treatment of enzyme no, reaction time 6 h): 0.3%
Decomposition efficiency: ratio of each glycoside/aglycon within its isoflavone family (concentrated soybean protein, substrate concentration 30%, heat treatment of enzyme yes, reaction time 6 h): 0.4%
Decomposition efficiency: ratio of each glycoside/aglycon within its isoflavone family (defatted soybean, substrate concentration 2%, heat treatment of enzyme no, reaction time 0 h): not detected
Decomposition efficiency: ratio of each glycoside/aglycon within its isoflavone family (defatted soybean, substrate concentration 2%, heat treatment of enzyme no, reaction time 1 h): not detected
Decomposition efficiency: ratio of each glycoside/aglycon within its isoflavone family (defatted soybean, substrate concentration 2%, heat treatment of enzyme no, reaction time 3 h): not detected
Decomposition efficiency: ratio of each glycoside/aglycon within its isoflavone family (defatted soybean, substrate concentration 2%, heat treatment of enzyme no, reaction time 6 h): not detected
Decomposition efficiency: ratio of each glycoside/aglycon within its isoflavone family (defatted soybean, substrate concentration 2%, heat treatment of enzyme yes, reaction time 6 h): not detected
Decomposition efficiency: ratio of each glycoside/aglycon within its isoflavone family (defatted soybean, substrate concentration 5%, heat treatment of enzyme no, reaction time 0 h): 58.4%
Decomposition efficiency: ratio of each glycoside/aglycon within its isoflavone family (defatted soybean, substrate concentration 5%, heat treatment of enzyme no, reaction time 1 h): 41.6%
Decomposition efficiency: ratio of each glycoside/aglycon within its isoflavone family (defatted soybean, substrate concentration 5%, heat treatment of enzyme no, reaction time 3 h): 31.8%
Decomposition efficiency: ratio of each glycoside/aglycon within its isoflavone family (defatted soybean, substrate concentration 5%, heat treatment of enzyme no, reaction time 6 h): 19.5%
Decomposition efficiency: ratio of each glycoside/aglycon within its isoflavone family (defatted soybean, substrate concentration 5%, heat treatment of enzyme yes, reaction time 6 h): 58.5%
Decomposition efficiency: ratio of each glycoside/aglycon within its isoflavone family (defatted soybean, substrate concentration 10%, heat treatment of enzyme no, reaction time 0 h): 53.0%
Decomposition efficiency: ratio of each glycoside/aglycon within its isoflavone family (defatted soybean, substrate concentration 10%, heat treatment of enzyme no, reaction time 1 h): 54.7%
Decomposition efficiency: ratio of each glycoside/aglycon within its isoflavone family (defatted soybean, substrate concentration 10%, heat treatment of enzyme no, reaction time 3 h): 36.6%
Decomposition efficiency: ratio of each glycoside/aglycon within its isoflavone family (defatted soybean, substrate concentration 10%, heat treatment of enzyme no, reaction time 6 h): 27.9%
Decomposition efficiency: ratio of each glycoside/aglycon within its isoflavone family (defatted soybean, substrate concentration 10%, heat treatment of enzyme yes, reaction time 6 h): 57.6%
Decomposition efficiency: ratio of each glycoside/aglycon within its isoflavone family (roasted soy flour, substrate concentration 2%, heat treatment of enzyme no, reaction time 0 h): not detected
Decomposition efficiency: ratio of each glycoside/aglycon within its isoflavone family (roasted soy flour, substrate concentration 2%, heat treatment of enzyme no, reaction time 1 h): not detected
Decomposition efficiency: ratio of each glycoside/aglycon within its isoflavone family (roasted soy flour, substrate concentration 2%, heat treatment of enzyme no, reaction time 3 h): not detected
Decomposition efficiency: ratio of each glycoside/aglycon within its isoflavone family (roasted soy flour, substrate concentration 2%, heat treatment of enzyme no, reaction time 6 h): not detected
Decomposition efficiency: ratio of each glycoside/aglycon within its isoflavone family (roasted soy flour, substrate concentration 2%, heat treatment of enzyme yes, reaction time 6 h): not detected
Decomposition efficiency: ratio of each glycoside/aglycon within its isoflavone family (roasted soy flour, substrate concentration 5%, heat treatment of enzyme no, reaction time 0 h): not detected
Decomposition efficiency: ratio of each glycoside/aglycon within its isoflavone family (roasted soy flour, substrate concentration 5%, heat treatment of enzyme no, reaction time 1 h): not detected
Decomposition efficiency: ratio of each glycoside/aglycon within its isoflavone family (roasted soy flour, substrate concentration 5%, heat treatment of enzyme no, reaction time 3 h): not detected
Decomposition efficiency: ratio of each glycoside/aglycon within its isoflavone family (roasted soy flour, substrate concentration 5%, heat treatment of enzyme no, reaction time 6 h): not detected
